# In PubChem BioAssay AID1996:
# Conditions: buffer; pH 7.4; 200.0 µM
row,Structure (SMILES),solubility kinetic [µg/mL]
1,COc1ccc(C(=O)Nc2ccccc2C(=O)N2CCOCC2)cc1OC,46.7
2,O=C(CN1CCN(c2ccc([N+](=O)[O-])cc2Cl)CC1)N1CCOCC1,54.9
3,Cc1cc(N2CCN(C(=O)Nc3ccc(F)cc3F)CC2)c2ccccc2n1,> 57.4
4,O=[N+]([O-])c1ccc(N2CCc3ccccc3C2)nc1,7.6
5,Cc1sc2nc(COC(=O)c3ccc(O)cc3)[nH]c(=O)c2c1C,8
6,N#CCC(=O)Nc1ccc(C(F)(F)F)cc1N1CCOCC1,38.3
7,O=S(=O)(NCCc1ccccc1)c1ccc(F)cc1,40.9
8,COc1cccc(NC(=O)COc2cccnc2[N+](=O)[O-])c1,5.8
9,Cc1ccc(C(=O)Nc2nccc(C)n2)cc1,21.9
10,COc1ccc2c(c1OC)CN1CCc3cc4c(cc3C1C2)OCO4 (stereo not given),2.1
11,Cl.N=c1sccn1CC(=O)Nc1ccc(Cl)cc1[N+](=O)[O-],44.4
12,CCOc1cc(CN2CCc3c([nH]c4ccccc34)C2)ccc1OC,32.8
13,O=[N+]([O-])c1ccc(-c2cn3c(n2)CCC3)cc1,25.5
14,O=C(CCNS(=O)(=O)c1ccc(F)c(F)c1)NCCN1CCOCC1,> 56.6
15,Fc1ccc(CN2CCN(c3ncccn3)CC2)c(F)c1,32.2
16,CC1(c2ccccc2)NC(=O)N(CC(=O)N(c2ccccc2)C2CCS(=O)(=O)C2)C1=O (stereo not given),60.3
17,CC(=O)c1sc(-c2ccc(F)cc2F)nc1C,0.8
18,CCN(CC(=O)NCc1ccc(F)cc1)C(=O)c1ccc(C)o1,> 47.8
19,c1ccc(CCNc2ncnc3sccc23)nc1,> 38.4
20,COc1cccc(N(CC(=O)N2CCOCC2)S(C)(=O)=O)c1,> 49.3
21,COc1cccc(CN(C)C(=S)Nc2ccc(C)c(C)c2)c1,25.1
22,COc1ccc(NC(=O)NC2CCCc3ccccc32)cc1 (stereo not given),1.9
23,Cc1cccc(OC(C)C(=O)NC2CCS(=O)(=O)C2)c1C (stereo not given),46.4
24,Cc1cc(Nc2ccccc2Cl)c2ccccc2n1,> 40.3

row,Structure (SMILES),solubility kinetic [µg/mL]
1,O=C(Cn1cc([N+](=O)[O-])ccc1=O)NCC(=O)Nc1ccc(F)c(F)c1F,9.2
2,COc1ccc(Cc2nc(C)cc(Cl)n2)cc1[N+](=O)[O-].Cl,> 49.5
3,COc1ccc(NC(=O)CN2CCN(c3ccccc3C)CC2)cc1,35.5
4,Cc1cc(C(=O)OC(C)C(=O)NC2CCCCC2)c(C)o1 (stereo not given),15.7
5,CN1CCN(S(=O)(=O)c2ccc(Cl)cc2)CC1,37.8
6,CCC(=O)NCCNc1nc2cc(C)cc(C)c2cc1C#N,3.7
7,COc1ccc(CNc2ccc(N3CCOCC3)cc2)cc1,40.9
8,CCCNC(=O)c1c(O)c2cccc3c2n(c1=O)CCC3,0.5
9,CCC1C(=O)NCCN1Cc1nc(-c2ccc(C)s2)oc1C (stereo not given),39.3
10,CC(=NCc1cccnc1)c1c(O)n(-c2ccc(Cl)cc2)c(=O)[nH]c1=O,2
11,O=C(Nc1cc(-c2nc3ncccc3o2)ccc1Cl)c1ccco1,4.4
12,CC(=O)N1CCCSC1=Nc1ccccc1,> 35.1
13,O=C(NCc1cccnc1)NC1CC(=O)N(c2ccc3c(c2)OCCO3)C1 (stereo not given),> 55.3
14,CC(=O)NCCC(=O)N1CCCC(N(C)CCc2ccccc2)C1 (stereo not given),> 49.7
15,CCNc1nc2c(c(=O)n(C)c(=O)n2C)n1CCCc1ccccc1,38.2
16,OCCNc1nc(-c2ccccc2)nc2c1oc1ccccc12,0.3
17,CCOC(=O)C1(CCOc2ccccc2)CCN(CC2CC2)CC1,45.7
18,COC(=O)/C=C/c1cnc2ccccc2c1,> 32
19,CCOc1ccc(N)cc1OC.Cl,> 30.6
20,CCOC(=O)Cc1csc(NC(=O)c2ccc(C)cc2)n1,45.6
21,CCCSc1ccc2nc(NC(=O)OC)[nH]c2c1,1.4
22,CC(C)c1ccc(NC(=O)Cc2c(C(=O)O)n(C)c3ccccc23)cc1,> 52.6
23,O=C(Cc1ccccc1)Nc1cc([N+](=O)[O-])ccc1N1CCOCC1,9.8
24,O=C(O)CSc1ncnc2scc(-c3ccccc3)c12,> 45.4

row,Structure (SMILES),solubility kinetic [µg/mL]
1,Cc1nccn1CC(O)COc1ccc(Cl)cc1Cl (stereo not given),> 45.2
2,COc1ccc(NC(=S)NCc2ccc(Cl)cc2)c(OC)c1,28.3
3,O=C(Nc1nc(-c2ccncc2)cs1)c1ccc(F)cc1,< 0.2
4,CNC(=O)c1c(NC(=O)c2ccc3ncsc3c2)sc(C)c1C,2
5,Cc1ccc(CNc2cc(C(=O)O)ccc2Cl)s1,> 42.3
6,COc1ccc2nc(C)c(C(N)=O)cc2c1,> 32.4
7,Cc1ccc(N2CCN(C(=S)Nc3ccccc3)CC2)cc1,1
8,FC(F)Oc1cccc(NC(=S)N2CCN(c3ccccn3)CC2)c1,2.3
9,O=S(=O)(NC1CCCCCCC1)c1ccccc1F,42.5
10,CN(C)C(CNC(=O)c1coc2ccccc2c1=O)c1ccccc1 (stereo not given),> 50.5
11,Cc1cc(C)n2nc(SCC(=O)Nc3ccccc3F)nc2n1,> 49.7
12,COc1cccc(CNC(=S)Nc2cccc(Cl)c2C)c1,29.9
13,CCNc1nc(NCC)nc(NS(=O)(=O)c2ccc(N)cc2)n1,36.9
14,CC1=CC(C)(C)N(C(=O)CN2C(=O)CCC2=O)c2ccccc21,> 46.9
15,CCCn1c(O)c(N=N)c2ccccc21,> 30.5
16,CCCN(CC1CCCO1)C(=O)CCc1nnc(-c2cc(C)on2)o1 (stereo not given),> 52.3
17,CC(=O)c1c(C(C)=O)c(C)n(-c2cccc3cccnc23)c1C,> 46
18,CN1C(=O)C(=Cc2ccc(N3CCCCCC3)cc2)C(=O)N(C)C1=O,7
19,CC(C)(C)C(=O)COC(=O)C1=NN(c2ccccc2)C(=O)CC1,> 47.5
20,CC1(C)Cc2nc3[nH]c(=S)[nH]c(=O)c3cc2CO1,> 39.5
21,COc1ccc(CC(=O)NCCC2=CCCCC2)cc1,> 41
22,CCCS(=O)(=O)C/C(N)=N/OC(=O)c1ccccc1Cl,38
23,COc1ccc(-c2ccc(CCC(=O)O)n2NC(=O)c2ccc(O)cc2)cc1,> 57.1
24,Cc1ccc(C)c(CN2CCN(c3ncccn3)CC2)c1,17.4

row,Structure (SMILES),solubility kinetic [µg/mL]
1,Cc1ccc2nc(-c3ccc(O)c(O)c3)cn2c1.Cl,22.7
2,COc1ccc(-c2nnc(SCC(=O)O)n2C)cc1OC,> 46.4
3,COc1ccc(NC(=O)c2ccc(Oc3ncccn3)cc2)cc1,10.6
4,COc1ccccc1CC(=O)NCCc1ccccc1,> 40.4
5,O=C(N/C(=C/c1ccccc1Cl)C(=O)N1CCCC1)c1ccccc1,> 53.2
6,c1ccc(-c2cc(-c3ccccc3)ncn2)cc1,4.6
7,O=C(NC1CC1)C1CCCN1C(=O)NC1CCCCC1 (stereo not given),> 41.9
8,Cc1oc(-c2cccs2)nc1CN1CCC(C(=O)N2CCCC2)CC1,> 53.9
9,COc1ccc(Cl)cc1/C=C(\C#N)C(N)=O,> 35.5
10,Cc1ccc(/C=N/NC(=O)CN2CCN(Cc3ccccc3Cl)CC2)o1,> 56.2
11,CC(=O)Nc1cccc(NC(=O)CCCC2CCCCC2)c1,3
12,CCCCCn1c(=O)c(C(=O)OCC)c(Cl)c2ccccc21,6.5
13,CC1CN(C2=N/C(=C/c3ccc4c(c3)OCO4)C(=O)N2)CC(C)O1 (stereo not given),24.7
14,CN(C)c1nc(C#N)nc(N(C)C)n1,22.3
15,O=C(O)c1ccc(NCCC2=CCCCC2)c([N+](=O)[O-])c1,41.9
16,O=C(NC(=S)Nc1ccc(Br)cn1)c1cccnc1,3
17,Cc1ccc(S(=O)(=O)N2CCC3(CC2)OCCO3)c(C)c1,> 46.7
18,Cc1ccccc1NS(=O)(=O)c1ccc(C(=O)N(C)CC(=O)Nc2ccccc2Br)cc1,73
19,COc1ccc(NC(=O)CCOc2cc(C)ccc2C)cc1S(=O)(=O)N1CCCCC1,7.9
20,COc1ccc(N2C(=O)C3C(C2=O)C3(c2ccccc2)c2ccccc2)cc1 (stereo not given),0.9
21,NC(=O)/C=C/C(=O)Nc1ccc(Cl)cc1,> 33.7
22,O=C(c1noc2c1CCCC2)N1CCc2ccccc2C1,40.8
23,Cc1cc(Sc2ncnc(N)c2[N+](=O)[O-])ncn1,> 39.6
24,O=c1ccc(C(F)(F)F)cn1Cc1cc(=O)n2ccsc2n1,44.2

row,Structure (SMILES),solubility kinetic [µg/mL]
1,CCn1c(C)nc2cc(S(=O)(=O)Nc3ccc(C)cc3)ccc21,> 49.4
2,O=C(/C=C/c1cccc(O)c1)c1ccc(N2CCOCC2)cc1,23.2
3,O=C(Nc1c[nH]c(=O)[nH]c1=O)c1ccccc1Cl,> 39.8
4,S=c1[nH]c(-c2cccs2)cn1-c1ccccc1,10.5
5,CC1CCN(Cc2cc(=O)oc3ccc(C(C)C)cc23)CC1.Cl,4
6,Cc1ccc(OCCCC(=O)NC2CCCCC2)cc1,15.7
7,CSc1ccc(CN2CCc3c([nH]c4ccccc34)C2)cc1,2
8,Cc1ccccc1OCCn1cc(C=O)c2ccccc21,< 0.6
9,O=C(/C=C/c1ccccc1)Oc1coc(CSc2ncccn2)cc1=O,10.2
10,CC(SCc1cc(=O)n2c([nH]c3ccccc32)c1C#N)C(=O)O (stereo not given),21.7
11,COC(=O)c1ccc(S(=O)(=O)NCc2ccco2)o1,38.8
12,Cc1cc(C)nc(Nc2cccc(Cl)c2)n1.Cl,5.9
13,O=C(COC(=O)/C=C/c1cccc(F)c1)Nc1cccc(S(=O)(=O)NC2=NCCCCC2)c1,18.3
14,COc1cc(C(=O)COC(=O)c2ccncc2)cc(OC)c1OC,> 49.7
15,COc1cc2ccccc2cc1C(=O)NC1CCC(C)CC1 (stereo not given),5
16,Cc1csc(NC(=O)c2ccc(Br)s2)n1,24.9
17,O=C1CC2c3ccccc3C1C1C(=O)N(CCO)C(=O)C21 (stereo not given),> 42.8
18,Cc1ccc(-c2noc(-c3ccno3)n2)cc1,2.4
19,O=CN1CCN(c2c([N+](=O)[O-])c(=O)oc3ccccc23)CC1,> 45.5
20,Cc1ccc(NC(=S)NC(=O)c2cccs2)cc1F,1.6
21,COc1ccc(CNC(=O)COC(=O)c2cc(C)nc3ccccc23)cc1,18.3
22,Cc1cc(C)cc(C(=O)OCC(=O)NCc2ccco2)c1,> 43.1
23,Cc1cnc(C(=O)NCc2ccc(F)cc2)cn1,> 36.8
24,COc1ccc(NC(=O)CC(C)n2ccnc2)cc1 (stereo not given),> 38.9
